Results on one substance are retold here after US8663690B2, “Method for nanoencapsulation” (William Marsh Rice University, priority 2006, dated 2014).

The data set in a line: UV-vis spectroscopy estimate of lutein-ester dissolved in ethanol. Format: physicochemical. The note with it: ethanol at 60° C., estimated from UV-vis spectroscopy; rest undissolved particles. As to the method: A suspension of lutein-ester (Blue California, Co.) was prepared by dissolving lutein-ester powder in ethanol at 60° C. under stirring. It is estimated from UV-vis spectroscopy that 20.0 wt % lutein-ester dissolves in ethanol at 60° C., and the rest are in the form of undissolved nanoparticles, mesoparticles, and microparticles. A solution of gum arabic (Sigma) was prepared by dissolving gum arabic in deionized water (18.2 Mega-Ohm·cm) at 60° C. under stirring until the gum arabic was completely dissolved and a clear solution was obtained.

For the substance lutein-ester, the “fraction of lutein-ester that dissolves in ethanol” value is listed as 20.0 wt %.
